From ChEMBL document CHEMBL3217587, “The discovery of N-1 substituted 2-aminobenzimidazoles as zinc-dependent S. aureus biofilm inhibitors” (Medchemcomm, 2012) come the findings set out here.

Calls of active or inactive are those of the source.

Data set [1] concerns Staphylococcus aureus. The data set can be described thus: Antimicrobial activity against methicillin-susceptible Staphylococcus aureus ATCC 29213 after 16 hrs by broth microdilution method. In kind it is functional. To be noted: ATCC 29213, 16 h. (Dilution methods test growth across graded concentrations, often in twofold steps.)
Data set [2] concerns Staphylococcus aureus. The data set is described as follows: Antimicrobial activity against methicillin-resistant Staphylococcus aureus ATCC BAA-44 after 16 hrs by broth microdilution method. In kind it is functional. Particulars: ATCC BAA-44, 16 h.
In data set [3] the test system is Staphylococcus aureus. The data set can be described thus: Antimicrobial activity against methicillin-resistant Staphylococcus aureus ATCC 33591 after 16 hrs by broth microdilution method. In kind it is functional. Particulars: ATCC 33591, 16 h.
For data set [4], the system named is Staphylococcus aureus. The data set is described as follows: Antimicrobial activity against methicillin-resistant Staphylococcus aureus ATCC 43300 after 16 hrs by broth microdilution method. In kind it is functional. To be noted: ATCC 43300, 16 h.
The test system of data set [5] is Staphylococcus aureus. The data set can be described thus: Antimicrobial activity against methicillin-resistant Staphylococcus aureus ATCC 700789 after 16 hrs by broth microdilution method. In kind it is functional. To be noted: ATCC 700789, 16 h.
The test system of data set [6] is Staphylococcus aureus. The data set is described as follows: Antimicrobial activity against methicillin-resistant Staphylococcus aureus ATCC BAA-811 after 16 hrs by broth microdilution method. In kind it is functional. To be noted: ATCC BAA-811, 16 h.
Data set [7] concerns Staphylococcus aureus. The data set can be described thus: Antimicrobial activity against methicillin-resistant Staphylococcus aureus ATCC BAA-1556 after 16 hrs by broth microdilution method. In kind it is functional. Particulars: ATCC BAA-1556, 16 h.
Data set [8] has as its system Staphylococcus aureus. The data set can be described thus: Antimicrobial activity against methicillin-resistant Staphylococcus aureus ATCC BAA-1685 after 16 hrs by broth microdilution method. In kind it is functional. Particulars: ATCC BAA-1685, 16 h.
Data set [9] deals with Staphylococcus aureus. The data set is described as follows: Antimicrobial activity against methicillin-resistant Staphylococcus aureus ATCC BAA-1753 after 16 hrs by broth microdilution method. In kind it is functional. Particulars: ATCC BAA-1753, 16 h.
Data set [10] has as its system Acinetobacter baumannii. The data set is described as follows: Antimicrobial activity against multidrug-resistant Acinetobacter baumannii ATCC BAA-1605 after 16 hrs by broth microdilution method. In kind it is functional. To be noted: ATCC BAA-1605, 16 h.
The test system of data set [11] is Pseudomonas aeruginosa. The data set can be described thus: Antimicrobial activity against Pseudomonas aeruginosa PA14 after 16 hrs by broth microdilution method. In kind it is functional. Particulars: PA14, 16 h.
Data set [12] deals with Staphylococcus aureus. The data set can be described thus: Toxicity in methicillin-resistant Staphylococcus aureus ATCC 43300 assessed as inhibition of planktonic cell growth at IC50 after 2 to 24 hrs by spectrophotometry. In kind it is organism-based.
Data set [13] relates to Staphylococcus aureus. The data set is described as follows: Antimicrobial activity against methicillin-resistant Staphylococcus aureus ATCC 43300 assessed as inhibition of biofilm formation after 24 hrs by crystal violet staining-based microscopy. To be noted: ATCC 43300, 24 h. In kind it is functional, organism-based.
Data set [14] relates to Staphylococcus aureus. The data set can be described thus: Antimicrobial activity against methicillin-resistant Staphylococcus aureus ATCC BAA-44 assessed as inhibition of biofilm formation after 24 hrs by crystal violet staining-based microscopy. In kind it is functional, organism-based. To be noted: ATCC BAA-44, 24 h.
Data set [15] deals with Staphylococcus aureus. The data set is described as follows: Antibiofilm activity against methicillin-resistant Staphylococcus aureus ATCC 43300 assessed as biofilm dispersal at 20 uM after 24 hrs by crystal violet staining-based microscopy. In kind it is functional, organism-based.
Data set [16] relates to Staphylococcus aureus. The data set is described as follows: Toxicity in methicillin-resistant Staphylococcus aureus ATCC BAA-44 assessed as inhibition of planktonic cell growth at IC50 after 2 to 24 hrs by spectrophotometry. In kind it is organism-based.
For data set [17], the system named is Staphylococcus aureus. The data set can be described thus: Antimicrobial activity against methicillin-resistant Staphylococcus aureus ATCC 43300 assessed as inhibition of biofilm formation at 8 uM after 24 hrs by crystal violet staining-based microscopy in presence of Ca2+ ion. In kind it is functional, organism-based.
Data set [18] deals with Staphylococcus aureus. The data set can be described thus: Antimicrobial activity against methicillin-resistant Staphylococcus aureus ATCC 43300 assessed as inhibition of biofilm formation at 8 uM after 24 hrs by crystal violet staining-based microscopy in presence of Cu2+ ion. In kind it is functional, organism-based.
Data set [19] concerns Staphylococcus aureus. The data set is described as follows: Antimicrobial activity against methicillin-resistant Staphylococcus aureus ATCC 43300 assessed as inhibition of biofilm formation at 8 uM after 24 hrs by crystal violet staining-based microscopy in presence of Fe2+ ion. In kind it is functional, organism-based.
Data set [20] deals with Staphylococcus aureus. The data set is described as follows: Antimicrobial activity against methicillin-resistant Staphylococcus aureus ATCC 43300 assessed as inhibition of biofilm formation at 8 uM after 24 hrs by crystal violet staining-based microscopy in presence of Mg2+ ion. In kind it is functional, organism-based.
In data set [21] the test system is Staphylococcus aureus. The data set can be described thus: Antimicrobial activity against methicillin-resistant Staphylococcus aureus ATCC 43300 assessed as inhibition of biofilm formation at 8 uM after 24 hrs by crystal violet staining-based microscopy in presence of Mn2+ ion. In kind it is functional, organism-based.
Data set [22] relates to Staphylococcus aureus. The data set can be described thus: Antimicrobial activity against methicillin-resistant Staphylococcus aureus ATCC 43300 assessed as inhibition of biofilm formation at 8 uM after 24 hrs by crystal violet staining-based microscopy in presence of < 50 uM Zn2+ ion. In kind it is functional.
Data set [23] relates to Staphylococcus aureus. The data set can be described thus: Antimicrobial activity against methicillin-resistant Staphylococcus aureus ATCC 43300 assessed as inhibition of biofilm formation at 8 uM after 24 hrs by crystal violet staining-based microscopy in presence of > 50 uM Zn2+ ion. In kind it is functional, organism-based.
The subject of data set [24] is Staphylococcus aureus. The data set can be described thus: Antimicrobial activity against methicillin-resistant Staphylococcus aureus ATCC 43300 assessed as inhibition of biofilm formation at 8 uM after 24 hrs by crystal violet staining-based microscopy in presence of 200 uM Zn2+ ion. In kind it is functional.

As for `CCCCCCn1c(N)nc2cc(NC(=O)c3ccc(CCCCC)cc3)ccc21.Cl`, the MIC in data set [1] was 16 mg/L; in [2], 16 mg/L; in data set [3], 16 mg/L; in data set [4] it was 16 mg/L; in data set [5], 32 mg/L; in data set [6], 16 mg/L. Further, the MIC is 16 mg/L in data set [7]; 16 mg/L in data set [8]; 16 mg/L in data set [9]; above 64 mg/L in data set [10]; above 64 mg/L in [11]. Besides, the Activity entry in data set [12] and in data set [16] was “Non-toxic” each time. For the same compound, the IC50 in data set [13] turned out to be 4.7 µM; in [14] it was 7.3 µM. The outcome in [15] was inactive. Also, the inhibition entry in data set [17], in data set [18], in data set [19], in data set [20] and in [21] was “Active” in each case. For the same compound, the inhibition entry in data set [22] and in data set [23] was “inactive” throughout.

Take `CCCCCc1ccc(C(=O)Nc2ccc3c(c2)nc(N)n3CCc2ccccc2)cc1.Cl`: the MIC amounted to 8 mg/L in data set [1]; 16 mg/L in data set [2]; 8 mg/L in [3]; 8 mg/L in [4]; 16 mg/L in [5]; 8 mg/L in data set [6]. Further, the MIC is 8 mg/L in data set [7]; 8 mg/L in data set [8]; 8 mg/L in [9]; above 64 mg/L in data set [10]; above 64 mg/L in data set [11]. The Activity entry in [12] and in data set [16] was “Non-toxic” throughout. Further, the IC50 in data set [13] came to 4.7 µM; in data set [14], 6 µM. Further, the result in data set [15] was inactive. The inhibition result in data set [17], in [18], in data set [19], in data set [20] and in data set [21] was “Active” each time. In addition, the results for the “inhibition (INH)” value in data set [22] and in data set [24] were 70% and 10%, respectively. Moreover, the inhibition entry in data set [23] was “inactive”.

As usually defined, the MIC is the smallest concentration in the dilution series that meets the test's criterion for growth inhibition. Low values mean inhibition by little substance, high ones a need for much substance. The term IC50 denotes the concentration that gives 50% inhibition.
